Measurements: the NIST ThermoML archive (doi:10.1021/acs.jced.6b00786)
± gives the expanded uncertainty stated by the source.

Tests used:
[1] = 101 kPa, Liquid, Vibrating tube method
[2] = xn = mol fraction of the nth substance listed; details: 101 kPa, Liquid, Vibrating tube method, x2 = 0

NC=O [formamide]
[1]
Details | mass density [kg/m3]
278.15 K | 1146.62 ± 0.2
288.15 K | 1138.17 ± 0.19
298.15 K | 1129.73 ± 0.19
308.15 K | 1121.22 ± 0.18
323.15 K | 1108.46 ± 0.17
333.15 K | 1099.88 ± 0.17

O [water]
[1]
Details | mass density [kg/m3]
274.15 K | 999.899 ± 0.043
275.15 K | 999.94 ± 0.043
276.15 K | 999.964 ± 0.043
277.15 K | 999.972 ± 0.049
278.15 K | 999.964 ± 0.043
279.15 K | 999.94 ± 0.043
280.15 K | 999.901 ± 0.043
281.15 K | 999.848 ± 0.043
282.15 K | 999.781 ± 0.043
283.15 K | 999.699 ± 0.043
323.15 K | 988.03 ± 0.049
333.15 K | 983.191 ± 0.052

O [water] + NC=O
[2]
Details | mass density [kg/m3]
274.15 K | 999.899 ± 0.043
275.15 K | 999.94 ± 0.043
276.15 K | 999.964 ± 0.043
277.15 K | 999.972 ± 0.049
278.15 K | 999.964 ± 0.043
279.15 K | 999.94 ± 0.043
280.15 K | 999.901 ± 0.043
281.15 K | 999.848 ± 0.043
282.15 K | 999.781 ± 0.043
283.15 K | 999.699 ± 0.043
323.15 K | 988.03 ± 0.049
333.15 K | 983.191 ± 0.052
